Reference: patent US20040077599A1, “Novel spiro[2.4]heptane amino carboxy compounds and derivatives thereof” (priority 2000, published 2004)
Read-outs that look alike come from different tables or passages of the source.

Key:
[1] = test system: Group II/III metabotropic glutamate receptors (mGluRs); assay: Cyclic AMP assay (forskolin-induced cyclic AMP accumulation in cortical slices); format: cell-based, Sprague Dawley rat; conditions: rat cortical slices; for Group II/III Agonist: inhibits forskolin-induced cyclic AMP accumulation; for Group II/III Antagonist: inhibits the glutamate-caused decrease in forskolin-induced cyclic AMP accumulation
Experimental: The assay of cyclic AMP formation can be performed as described previously (Tovey et al., Clinica Chimica Acta, 56, 221-234, 1974). The assay can be modelled on the cyclic AMP assay kit available from Amersham, which in turn, is based on the assay created by Tovey et al. Briefly, samples are prepared from Sprague Dawley rat (225-250 g) cortical slices. Slices are incubated with the drug, and then challenged with forskolin to induce cyclic AMP release. Following termination of the reaction by boiling, the slices are homogenized and centrifuged. Samples of supernatant are then incubated for 2-3 hours with a known quantity of [^3H]cAMP and a binding protein. When the incubation is complete, the bound cyclic AMP is separated from the free cyclic AMP by centrifugation with charcoal. The resulting supernatant (containing free cyclic AMP) is then analyzed by liquid scintillation counting. The amount of unbound cyclic AMP can be calculated from a standard curve previously determined with various samples of free cyclic AMP.
Group II/III metabotropic glutamate receptors (mGluRs) are negatively coupled to adenylate cyclase, and agonists of these receptors lead to a decrease in intracellular cyclic AMP accumulation.
The assay has been modeled on the cyclic AMP assay kit available from Amersham. This kit, in turn, is based on the assay created by Tovey et al. (1974). Briefly, the samples were prepared from Sprague Dawley rat (225-250 g) cortical slices. Slices were incubated with the test compound (drug), and then challenged with forskolin to induce cyclic AMP release. Following termination of the reaction by boiling, the slices were homogenized and centrifuged. Samples of supernatant were then incubated for 2-3 hours with a known quantity of [^3H]cAMP and a binding protein. When the incubation was complete, the bound cyclic AMP was separated from the free cyclic AMP by centrifugation with charcoal. The resulting supernatant (containing free cyclic AMP) was then analyzed by liquid scintillation counting. The amount of unbound cyclic AMP was calculated from a standard curve previously determined with various samples of free cyclic AMP.
If the drugs tested inhibit forskolin-induced cyclic AMP accumulation, they are considered to be Group II/III agonists. Conversely, if they inhibit the decrease in forskolin-induced cyclic AMP accumulation caused by glutamate, they are considered to be Group II/III antagonists.

[2] = test system: Group I metabotropic glutamate receptors (mGluRs); assay: Phosphatidylinositol assay (inositol phosphate accumulation in neonatal tissue slices); format: cell-based, Sprague Dawley rat; conditions: neonatal rat slices, 45 minutes; for EC50: antagonist mode vs ACPD; for Group I Agonist: increase in intracellular free inositol phosphate accumulation; for Group I Antagonist: inhibits inositol phosphate accumulation induced by ACPD
Experimental: Phosphatidylinositol (PI) hydrolysis can be measured as described below: Briefly, cross-chopped slices are prepared from neonatal Sprague Dawley rat tissue (age: p7-p14). The slices are pre-labelled with [^3H] myo-inositol. Following pre-labelling, the slices are incubated with the test drugs and standard (known Group I agonists i.e. ACPD) for a period of 45 minutes. The incubation is terminated by the addition of chloroform/methanol/HCl (100:200:2). The resulting mixture is separated into two phases by the addition of chloroform and distilled water. The aqueous fraction is applied to ion exchange columns, and inositol phosphates are eluted using 800 mM Ammonium Formate/100 mM Formic Acid. The eluent is then analyzed using liquid scintillation counting. The amount of inositol phosphate accumulation is expressed as a percentage of that induced by ACPD.
Group I metabotropic glutamate receptors (mGluRs) are positively coupled on inositol phosphate metabolism. Agonists at these receptors lead to an increase in intracellular free inositol phosphates, while antagonists inhibit the increase in intracellular free inositol phosphate induced by standard agonists (i.e. ACPD).
Cross-chopped slices were prepared from neonatal Sprague Dawley rat tissue (age: p7-p14). The slices were pre-labelled with [^3H] myo-inositol. Following pre-labelling, the slices were incubated with the test compounds and standard (known Group I agonists i.e. ACPD) for a period of 45 minutes. The incubation was terminated by the addition of chloroform/methanol/HCl (100:200:2). The resulting mixture was separated into two phases by the addition of chloroform and distilled water. The aqueous fraction was applied to ion exchange columns, and inositol phosphates were eluted using 800 mM Ammonium Formate/100 mM Formic Acid. The eluent was then analyzed using liquid scintillation counting. The amount of inositol phosphate accumulation was expressed as a percentage of that induced by ACPD.
If the drugs cause an increase in intracellular free inositol phosphate accumulation, they are considered to be Group I agonists. […]

[3] = antagonist mode vs glutamate, read-out: EC50 (M), Group II/III Antagonist
[4] = agonist mode, read-out: EC50 (M), Group II/III Agonist

SMILES	EC50 [1, 3]	Group II/III Agonist [1]	Group II/III Antagonist [1]	EC50 [2]	Group I Agonist [2]	Group I Antagonist [2]	EC50 [1, 4]
N[C@@]1(C(=O)O)CCCC12CC2C(=O)O (some centres unmarked) [Compound 7, Spiro[2.4]heptane-4-amino-1,4-dicarboxylic acid]	1.4e-09 M	No	Yes	220 nM	No	Yes	
N[C@]1(C(=O)O)CCCC12CC2C(=O)O (some centres unmarked) [Compound 8, Spiro[2.4]heptane-4-amino-1,4-dicarboxylic acid]	1e-06 M	No	yes	94 nM	No	Yes	
NC1(C(=O)O)CCCC12C(C(=O)O)C2c1ccccc1 (centres unmarked) [Compound 16, Spiro[2.4]heptane4-amino-2-phenyl-1,4-dicarboxylic Acid]		Yes	No	100 nM	No	Yes	1e-09 M
NC1(C(=O)O)CC2(CC2C(=O)O)c2ccccc21 (centres unmarked) [Compound 22, 1-Amino-1-carboxyindan-3-spiro-cyclopropanecarboxylic Acid]	8.7e-10 M	No	No		No	No	
NC(C(=O)O)C1CCCC12CC2C(=O)O (centres unmarked) [Compound 26, Spiro[4,2]heptane-1-carboxy-4-glycine]		Yes	Yes	88 nM	No	Yes	1.6e-06 M
NC(C(=O)O)C1CCCC12CC2C(=O)O (centres unmarked) [Compound 27, Spiro[4,2]heptane-1-carboxy-4-glycine]		Yes	Yes	0.84 nM	No	Yes	8.7e-11 M
